IC50 data for 13 molecules are collected here from US11767322B2 (BRISTOL-MYERS SQUIBB COMPANY, priority 2020, dated 2023).

Where two headings read alike, the source gives them in different places. A value given as a limit tells only on which side of the number the result lay.

In assay [1] the target is T1, His-GST-TVMV-hRIPK1(1-324) (Homo sapiens, UniProt Q13546).
T1 construct: The coding region of human RIPK1(1-324) flanked by NdeI site at 5′ end; made in house; host or cells: Spodoptera frugiperda Sf9 insect cells (baculovirus, Bac-to-Bac)
T1 sequence (Q13546 1-324): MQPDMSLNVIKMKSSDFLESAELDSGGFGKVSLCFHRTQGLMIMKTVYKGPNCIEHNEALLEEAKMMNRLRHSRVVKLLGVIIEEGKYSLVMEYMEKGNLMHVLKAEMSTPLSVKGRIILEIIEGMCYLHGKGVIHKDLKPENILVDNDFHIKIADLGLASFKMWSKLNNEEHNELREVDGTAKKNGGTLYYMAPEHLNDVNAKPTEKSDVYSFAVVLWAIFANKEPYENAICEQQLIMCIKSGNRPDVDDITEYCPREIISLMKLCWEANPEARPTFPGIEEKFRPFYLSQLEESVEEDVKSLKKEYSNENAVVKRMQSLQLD
The experiment in a line: biochemical. The assay is classed as binding.

For assay [2], the system named is MLKL phosphorylation in HT29-L23 human colorectal adenocarcinoma cells. The experiment in a line: MLKL phosphorylation high-content assay. The assay is classed as cell-based.
Assay [3] deals with GST-tagged PIK3Cδ in complex with PIK3R1 (Homo sapiens, UniProt O00329). As to the kind of experiment: PI3Kδ HTRF binding assay. Conditions: read-out: PIK3CD IC50. (Time-resolved FRET reads energy transfer from a long-lived donor to a nearby acceptor.)
Chain of GST-tagged PIK3Cδ in complex with PIK3R1 (O00329 whole entry): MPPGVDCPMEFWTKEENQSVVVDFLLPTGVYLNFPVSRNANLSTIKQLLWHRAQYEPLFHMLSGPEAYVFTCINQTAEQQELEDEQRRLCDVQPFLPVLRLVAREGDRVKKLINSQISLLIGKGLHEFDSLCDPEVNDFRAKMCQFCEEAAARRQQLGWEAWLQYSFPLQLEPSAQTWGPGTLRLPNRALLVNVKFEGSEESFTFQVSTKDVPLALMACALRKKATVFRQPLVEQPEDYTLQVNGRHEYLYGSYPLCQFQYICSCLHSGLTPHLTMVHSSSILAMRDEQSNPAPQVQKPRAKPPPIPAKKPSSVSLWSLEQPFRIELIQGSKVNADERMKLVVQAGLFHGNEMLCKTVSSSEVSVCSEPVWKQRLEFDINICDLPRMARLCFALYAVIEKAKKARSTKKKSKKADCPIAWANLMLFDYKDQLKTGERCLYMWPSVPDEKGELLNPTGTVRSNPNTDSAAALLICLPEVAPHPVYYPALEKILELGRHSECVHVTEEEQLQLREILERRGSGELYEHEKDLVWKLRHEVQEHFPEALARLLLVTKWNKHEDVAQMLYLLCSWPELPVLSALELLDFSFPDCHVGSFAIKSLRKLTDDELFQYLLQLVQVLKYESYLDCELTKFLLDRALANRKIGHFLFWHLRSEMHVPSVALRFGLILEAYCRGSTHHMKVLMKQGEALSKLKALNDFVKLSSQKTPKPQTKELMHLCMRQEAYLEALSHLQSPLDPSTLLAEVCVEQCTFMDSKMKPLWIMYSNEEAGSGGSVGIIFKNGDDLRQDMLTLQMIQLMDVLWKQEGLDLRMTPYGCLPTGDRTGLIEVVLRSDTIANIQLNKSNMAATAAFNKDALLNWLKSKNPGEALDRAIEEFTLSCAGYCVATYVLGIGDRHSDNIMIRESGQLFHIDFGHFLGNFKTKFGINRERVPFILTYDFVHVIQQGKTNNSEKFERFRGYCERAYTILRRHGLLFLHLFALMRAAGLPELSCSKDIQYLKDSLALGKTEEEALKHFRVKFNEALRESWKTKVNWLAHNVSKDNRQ
Chain of GST-tagged PIK3Cδ in complex with PIK3R1 (P27986 whole entry partner): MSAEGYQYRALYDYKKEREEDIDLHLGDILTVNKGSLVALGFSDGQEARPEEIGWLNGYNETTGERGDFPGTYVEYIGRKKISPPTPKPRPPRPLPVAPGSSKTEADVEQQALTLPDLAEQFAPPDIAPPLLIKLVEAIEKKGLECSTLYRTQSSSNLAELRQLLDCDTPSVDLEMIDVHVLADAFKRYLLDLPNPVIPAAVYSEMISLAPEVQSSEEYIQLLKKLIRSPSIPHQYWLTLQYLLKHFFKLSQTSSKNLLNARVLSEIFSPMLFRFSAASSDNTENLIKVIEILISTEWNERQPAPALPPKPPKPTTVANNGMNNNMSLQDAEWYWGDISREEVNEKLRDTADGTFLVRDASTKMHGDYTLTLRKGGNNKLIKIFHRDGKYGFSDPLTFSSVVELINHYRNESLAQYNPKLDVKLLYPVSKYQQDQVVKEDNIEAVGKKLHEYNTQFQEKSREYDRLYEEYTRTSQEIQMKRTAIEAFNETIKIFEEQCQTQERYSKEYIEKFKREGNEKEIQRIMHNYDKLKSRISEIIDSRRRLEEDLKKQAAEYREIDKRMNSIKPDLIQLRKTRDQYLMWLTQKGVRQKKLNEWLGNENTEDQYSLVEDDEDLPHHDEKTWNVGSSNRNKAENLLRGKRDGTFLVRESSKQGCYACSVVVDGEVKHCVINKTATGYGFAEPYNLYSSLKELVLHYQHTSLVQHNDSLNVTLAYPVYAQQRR
The mark [4] stands for this setting: HTRF probe displacement, 1 h at rt, read-out: RIPK1 IC50.
Setting [5] is: read-out: pMLKL IC50, HT29-L23 cells, necroptosis induced with TNFα, SMAC mimetic and Z-VAD, 6 h, maximal inhibition defined by Nec1s.
[6] abbreviates: HTRF probe displacement, 1 h at rt.
[7] abbreviates: Table 22, compounds of the present invention, read-out: RPIK1 IC50.
The mark [8] stands for this setting: Homo sapiens, 6 h, read-out: pMLKL IC50, HT29-L23 cells, necroptosis induced with TNFα, SMAC mimetic and Z-VAD, 6 h, maximal inhibition defined by Nec1s.
The mark [9] stands for this setting: Homo sapiens, read-out: pMLKL IC50, Table 22, compounds of the present invention.

The term IC50 denotes the concentration that inhibits the measured activity by half. Turning to `Cc1ccc(-c2ccn3nc(N)nc3c2)c(F)c1C(=O)NC(CF)CC(O)c1ccc(F)cc1` (single isomer, unassigned) [Example 26, 3-(2-amino-[1,2,4]triazolo[1,5-a]pyridin-7-yl)-2-fluoro-N-(1-fluoro-4-(4-fluorophenyl)-4-hydroxybutan-2-yl)-6-methylbenzamide], the 50% inhibitory concentration (IC50) in assay [1] (setting [4]) was 233 nM; in assay [2] (setting [5]), 696 nM; in assay [3] (setting [6]), above 15000 nM.
For `Cc1cc(F)c(-c2ccn3nc(N)nc3c2)cc1C(=O)NCCC(O)c1ccc(F)cc1` (single isomer, unassigned) [Example 9, 5-(2-amino-[1,2,4]triazolo[1,5-a]pyridin-7-yl)-4-fluoro-N-(3-(4-fluorophenyl)-3-hydroxypropyl)-2-methylbenzamide], the IC50 is 6.2 nM in assay [1] (setting [4]); 6.2 nM in assay [1] (setting [7]); 2.4 nM in assay [2] (setting [8]); 2.4 nM in assay [2] (setting [9]); above 15000 nM in assay [3] (setting [6]).
As for `COc1ccc(-c2ccn3nc(N)nc3c2)c(F)c1C(=O)NCC(F)(F)C(O)c1ccc(Cl)c(Cl)c1` (stereo not shown) [Example 267, 3-{2-amino-[1,2,4]triazolo[1,5-a]pyridin-7-yl}-N-[3-(3,4-dichlorophenyl)-2,2-difluoro-3-hydroxypropyl]-2-fluoro-6-methoxybenzamide], the half-inhibitory concentration (IC50) was 2.8 nM in assay [1] (setting [4]), 1 nM in assay [2] (setting [5]) and above 15000 nM in assay [3] (setting [6]).
For the molecule `COc1ccc(-c2ccn3nc(N)nc3c2)c(F)c1C(=O)NCC[C@@H](O)c1ccc(Cl)cc1` [Example 148, (R)-3-(2-amino-[1,2,4]triazolo[1,5-a]pyridin-7-yl)-N-(3-(4-chlorophenyl)-3-hydroxypropyl)-2-fluoro-6-methoxybenzamide], the IC50 in assay [1] (setting [4]) came out at 8.3 nM; in assay [2] (setting [8]), 17 nM; in assay [3], 5000 nM.
With `Cc1ccc(-c2ccn3nc(N)nc3c2)c(F)c1C(=O)NCC[C@@H](O)c1ccc(Cl)cc1` [Example 152, (R)-3-(2-amino-[1,2,4]triazolo[1,5-a]pyridin-7-yl)-N-(3-(4-chlorophenyl)-3-hydroxypropyl)-2-fluoro-6-methylbenzamide], the half-maximal inhibitory concentration (IC50) is 2.3 nM in assay [1] (setting [4]); 2.3 nM in assay [1] (setting [7]); 0.5 nM in assay [2] (setting [8]); 0.5 nM in assay [2] (setting [9]); above 15000 nM in assay [3] (setting [6]).
Take `Nc1nc2cc(-c3ccc(Cl)c(C(=O)NCC(F)(F)C(O)c4ccc(Cl)c(F)c4)c3F)ccn2n1` (stereo not shown) [Example 191]: the half-inhibitory concentration (IC50) was 2.6 nM in assay [1] (setting [4]), 1.4 nM in assay [2] (setting [5]) and above 15000 nM in assay [3] (setting [6]).
For `Cc1ccc(-c2ccn3nc(N)nc3c2)c(F)c1C(=O)NC(C)CC(O)c1ccc(F)cc1` (single isomer, unassigned) [Example 37, 3-(2-amino-[1,2,4]triazolo[1,5-a]pyridin-7-yl)-2-fluoro-N-(4-(4-fluorophenyl)-4-hydroxybutan-2-yl)-6-methylbenzamide] the same measures were 21 nM, 41 nM and above 15000 nM.
For `Cc1c(C(=O)NC(C)CC(O)c2ccc(Cl)cc2)cc(-c2ccn3nc(N)nc3c2)c(F)c1F` (racemic) [Example 101, 5-(2-amino-[1,2,4]triazolo[1,5-a]pyridin-7-yl)-N-(4-(4-chlorophenyl)-4-hydroxybutan-2-yl)-3,4-difluoro-2-methylbenzamide] the same measures were 4.8 nM, 2.9 nM and above 15000 nM.
`Cc1ccc(-c2ccn3nc(N)nc3c2)c(F)c1C(=O)NCCC(O)c1ccccc1F` (single isomer, unassigned) [Example 70, 3-(2-amino-[1,2,4]triazolo[1,5-a]pyridin-7-yl)-2-fluoro-N-(3-(2-fluorophenyl)-3-hydroxypropyl)-6-methylbenzamide]: the values for the IC50 in assay [1] (setting [4]), in assay [2] (setting [5]) and in assay [3] (setting [6]) were 11 nM, 8.1 nM and above 15000 nM, respectively.
In the case of `Cc1ccc(-c2ccn3nc(N)nc3c2)c(F)c1C(=O)NCCC(C)(O)c1ccc(Cl)cc1` (single isomer, unassigned) [Example 59, 3-(2-amino-[1,2,4]triazolo[1,5-a]pyridin-7-yl)-N-(3-(4-chlorophenyl)-3-hydroxybutyl)-2-fluoro-6-methylbenzamide], the values for the concentration for half-maximal inhibition (IC50) in assay [1] (setting [4]), in assay [2] (setting [8]) and in assay [3] (setting [6]) were 2.5 nM, 1.2 nM and above 15000 nM, respectively.
For `Nc1nc2cc(-c3ccc(Cl)c(C(=O)NCC[C@H](O)c4ccc(Cl)cc4)c3F)ccn2n1` [Example 153, (S)-3-(2-amino-[1,2,4]triazolo[1,5-a]pyridin-7-yl)-6-chloro-N-(3-(4-chlorophenyl)-3-hydroxypropyl)-2-fluorobenzamide], in that order: 4.1 nM, 8.3 nM and above 15000 nM.
In the case of `Cc1ccc(-c2ccn3nc(N)nc3c2)c(F)c1C(=O)NCC(F)(F)C(O)c1ccc(F)c(F)c1` (single isomer, unassigned) [Example 198, 3-(2-amino-[1,2,4]triazolo[1,5-a]pyridin-7-yl)-N-(3-(3,4-difluorophenyl)-2,2-difluoro-3-hydroxypropyl)-2-fluoro-6-methylbenzamide], the results for the 50% inhibitory concentration (IC50) in assay [1] (setting [4]), in assay [2] (setting [5]) and in assay [3] (setting [6]) were 6.4 nM, 1.3 nM and above 15000 nM, respectively.
For `Cc1ccc(-c2ccn3nc(N)nc3c2)c(F)c1C(=O)NCC(F)(F)C(C)(O)c1ccc(Cl)cc1` (single isomer, unassigned) [Example 222, 3-(2-amino-[1,2,4]triazolo[1,5-a]pyridin-7-yl)-N-(3-(4-chlorophenyl)-2,2-difluoro-3-hydroxybutyl)-2-fluoro-6-methylbenzamide] the same measures were 3.2 nM, 1 nM and above 15000 nM.
